Results from paper PMC3297362 (Journal of Medicinal Chemistry, 2012).

Columns and labels:
[1] = biological target: T1, hCOX-2 in HNSCC 1483 cells (Homo sapiens, UniProt P35354); assay type: cell-based; settings: at 5 μM
T1 sequence (P35354 18-604): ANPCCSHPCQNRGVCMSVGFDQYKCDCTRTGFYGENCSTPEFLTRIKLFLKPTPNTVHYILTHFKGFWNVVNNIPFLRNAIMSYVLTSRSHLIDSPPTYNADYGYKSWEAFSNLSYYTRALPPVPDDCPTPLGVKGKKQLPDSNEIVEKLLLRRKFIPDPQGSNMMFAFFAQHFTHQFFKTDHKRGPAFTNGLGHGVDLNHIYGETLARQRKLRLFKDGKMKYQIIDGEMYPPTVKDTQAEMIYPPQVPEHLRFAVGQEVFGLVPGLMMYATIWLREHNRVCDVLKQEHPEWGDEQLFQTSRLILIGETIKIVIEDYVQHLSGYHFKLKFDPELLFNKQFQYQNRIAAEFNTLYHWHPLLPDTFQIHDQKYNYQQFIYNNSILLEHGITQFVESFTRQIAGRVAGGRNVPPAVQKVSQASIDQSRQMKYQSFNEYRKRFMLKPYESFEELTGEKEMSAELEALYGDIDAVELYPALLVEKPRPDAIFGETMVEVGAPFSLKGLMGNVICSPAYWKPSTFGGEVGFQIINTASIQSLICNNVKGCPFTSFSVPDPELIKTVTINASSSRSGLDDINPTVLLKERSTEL

[2] = tested on: peroxisome proliferator-activated receptor (PPAR)γ; settings: cell culture; cited from earlier work
[3] = biological target: T2, murine COX-2 (Mus musculus, UniProt Q05769); assay: biochemical; settings: COX-2 IC50, purified mCOX-2; 5 μM AA
T2 sequence (Q05769 18-604): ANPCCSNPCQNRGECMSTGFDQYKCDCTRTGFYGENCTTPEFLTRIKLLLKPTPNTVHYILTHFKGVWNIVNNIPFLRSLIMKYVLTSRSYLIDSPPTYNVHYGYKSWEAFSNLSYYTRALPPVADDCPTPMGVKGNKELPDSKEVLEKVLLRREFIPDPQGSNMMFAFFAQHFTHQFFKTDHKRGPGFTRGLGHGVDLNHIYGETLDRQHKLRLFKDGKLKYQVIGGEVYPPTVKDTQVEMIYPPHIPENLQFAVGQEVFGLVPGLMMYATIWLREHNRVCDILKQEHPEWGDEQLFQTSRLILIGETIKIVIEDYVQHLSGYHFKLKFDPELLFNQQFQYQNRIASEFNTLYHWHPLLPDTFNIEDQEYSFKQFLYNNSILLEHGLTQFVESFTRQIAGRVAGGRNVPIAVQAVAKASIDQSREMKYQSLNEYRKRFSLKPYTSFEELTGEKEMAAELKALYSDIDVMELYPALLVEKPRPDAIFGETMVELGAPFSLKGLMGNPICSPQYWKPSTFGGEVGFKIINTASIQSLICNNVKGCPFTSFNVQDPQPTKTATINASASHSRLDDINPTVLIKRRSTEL

[4] = biological target: T3, ovine COX-1 (Ovis aries, UniProt P05979); assay type: biochemical
T3 sequence (P05979 25-600): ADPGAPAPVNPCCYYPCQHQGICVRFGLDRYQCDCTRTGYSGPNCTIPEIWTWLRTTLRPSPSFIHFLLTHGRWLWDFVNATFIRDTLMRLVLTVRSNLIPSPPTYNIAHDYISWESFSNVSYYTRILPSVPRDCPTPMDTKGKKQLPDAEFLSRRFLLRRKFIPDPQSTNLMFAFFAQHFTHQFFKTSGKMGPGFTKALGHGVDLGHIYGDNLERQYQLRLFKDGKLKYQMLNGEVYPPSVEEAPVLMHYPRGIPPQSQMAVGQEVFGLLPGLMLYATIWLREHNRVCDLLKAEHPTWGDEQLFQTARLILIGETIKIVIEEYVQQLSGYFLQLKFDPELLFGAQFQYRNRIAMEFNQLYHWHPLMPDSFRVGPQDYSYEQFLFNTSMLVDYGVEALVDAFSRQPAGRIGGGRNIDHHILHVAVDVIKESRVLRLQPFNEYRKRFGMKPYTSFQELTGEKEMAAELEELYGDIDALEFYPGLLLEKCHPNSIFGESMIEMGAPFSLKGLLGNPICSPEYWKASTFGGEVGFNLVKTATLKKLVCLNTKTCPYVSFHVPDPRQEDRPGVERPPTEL

inhibition of hCOX-2 in HNSCC 1483 cells (in words) [1] | IC50 [3] [µM] | improvement in activity against COX-1 as compared with reference compound 2 [4] | Structure (SMILES) | activation of PPARγ (in words) [2]
no inhibition | – | – | O=C(O)CC1=C/C(=C\c2ccc(-c3ccccc3)cc2)c2ccc(F)cc21 [compound 13a] | potent activator
no inhibition | – | – | CSc1ccc(/C=C2\C=C(CC(=O)O)c3cc(F)ccc32)cc1 [compound 2, (E)-2-(5-fluoro-1-(4-(methylthio)benzylidene)-1H-inden-3-yl)acetic acid] | –
– | 14 | more than 4 fold | O=C(CC1=C/C(=C\c2ccc(-c3ccccc3)cc2)c2ccc(F)cc21)NS(=O)(=O)C(F)(F)F [compound 21c, (E)-2-(1-([1,1′-Biphenyl]-4-ylmethylene)-5-fluoro-1H-inden-3-yl)-N-((trifluoromethyl)sulfonyl)-acetamide] | –
